These results are taken from PubChem BioAssay (NCI).

Structures are written as SMILES. Several values for one entry are separate records, joined by “and”; a condition that tells them apart may be missing. Equal entries are not always repeated.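 Results reflect a 48-hour exposure of cells in 96-well plates to compound at five concentrations. GI50: concentration for 50% inhibition of growth. Definition used: TGI = concentration required for complete inhibition of growth.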 A value given as a limit tells only on which side of the number the result lay.

Among the test systems are NCI-H23 lung; OVCAR-3 ovarian; CAKI-1 renal; HT29 colon; SNB-75 CNS; HL-60(TB) leukemia; NCI-H522 lung; SN12C renal; UACC-62 melanoma; TK-10 renal.
Assay in all cases: growth of human tumour cells (NCI), 48 h

With `c1cc(OCCN2CCCCC2)ccc1CNc1ccc2nc(CCC3CCCCC3)[nH]c2c1`, the GI50 in the assay with NCI-H23 lung was 2030 nM; with OVCAR-3 ovarian it was 1730 nM; in the assay with CAKI-1 renal, 1960 nM; in the assay with HT29 colon it was 907 nM; with SNB-75 CNS, 1620 nM; with HL-60(TB) leukemia, 1790 nM. Besides, the GI50 was 1980 nM with NCI-H522 lung, 1520 nM in the assay on SN12C renal, 1950 nM with UACC-62 melanoma and 2900 nM in the assay on TK-10 renal. The TGI with NCI-H23 lung was 4910 nM; in the assay with OVCAR-3 ovarian, 3500 nM; with CAKI-1 renal, 3930 nM; with HT29 colon, 3700 nM; in the assay with SNB-75 CNS, 4080 nM; with HL-60(TB) leukemia, 3780 nM. For the same compound, the TGI in the assay on NCI-H522 lung turned out to be 3940 nM; in the assay with SN12C renal, 3330 nM; with UACC-62 melanoma, 3470 nM; in the assay with TK-10 renal, 8260 nM.

As to `O=C([CH-]C(=O)c1ccccc1)c1ccccc1.O=C([CH-]C(=O)c1ccccc1)c1ccccc1.O=C([CH-]C(=O)c1ccccc1)c1ccccc1.[OH3+].[Y+3]`, the GI50 is 3510 nM in the assay on NCI-H23 lung; 5000 nM with OVCAR-3 ovarian; 5680 nM with CAKI-1 renal; 4090 nM in the assay with HT29 colon; 3250 nM in the assay on SNB-75 CNS; 2400 nM with HL-60(TB) leukemia. In addition, the GI50 is 2580 nM in the assay on NCI-H522 lung, 4680 nM in the assay with SN12C renal, 5730 nM in the assay on UACC-62 melanoma and 7780 nM in the assay with TK-10 renal. In addition, the TGI came to 18900 nM in the assay on NCI-H23 lung; 17300 nM in the assay on OVCAR-3 ovarian; 26800 nM in the assay with CAKI-1 renal; 17100 nM in the assay with HT29 colon; 8100 nM in the assay with SNB-75 CNS; 11500 nM in the assay on HL-60(TB) leukemia. In addition, the TGI was found to be 11100 nM with NCI-H522 lung, 26700 nM with SN12C renal, 22300 nM with UACC-62 melanoma and 68400 nM with TK-10 renal.

For `CCOC(=O)NC(=O)c1cn(CCCOC(=O)CCCCCCCCCCC(=O)OCCCn2cc(C(=O)NC(=O)OCC)c(=O)n(C)c2=O)c(=O)n(C)c1=O`, the TGI in the assay on NCI-H23 lung, in the assay on OVCAR-3 ovarian, in the assay with CAKI-1 renal, in the assay with HT29 colon, in the assay with SNB-75 CNS and in the assay with HL-60(TB) leukemia was > 100000 nM throughout. Moreover, the TGI with NCI-H522 lung, in the assay with SN12C renal, with UACC-62 melanoma and in the assay with TK-10 renal was > 100000 nM each time.

As for `O=c1[nH]ccc2nc(N3CCC(O)CC3)nc(Nc3cccc(C(F)(F)F)c3)c12`, the GI50 in the assay with NCI-H23 lung was 3240 nM; with OVCAR-3 ovarian it was 1340 nM; in the assay with CAKI-1 renal, 282 nM; in the assay with HT29 colon, 3880 nM; in the assay with SNB-75 CNS, 5760 nM; in the assay on HL-60(TB) leukemia, 863 nM. Moreover, the GI50 in the assay on NCI-H522 lung is 2360 nM; in the assay with SN12C renal, 4070 nM; in the assay with UACC-62 melanoma, 1840 nM; in the assay on TK-10 renal it was 5980 nM. Moreover, the TGI with NCI-H23 lung was found to be 13900 nM; in the assay with OVCAR-3 ovarian it was 3980 nM; in the assay with CAKI-1 renal, 6300 nM; with HT29 colon, 96300 nM; in the assay with SNB-75 CNS, 82100 nM; with HL-60(TB) leukemia, 5060 nM. In addition, the TGI with NCI-H522 lung is 10100 nM; with SN12C renal, > 100000 nM; in the assay on UACC-62 melanoma it was 6950 nM; in the assay on TK-10 renal, 44900 nM.

Turning to `CN(C)C1CCN(C(=O)c2ccc(NC(=O)Nc3ccc(-c4nc(N5CCOCC5)nc(N5CCOCC5)n4)cc3)cc2)CC1`, the GI50 in the assay with NCI-H23 lung was 36.8 nM and 29.7 nM and 73.2 nM; with OVCAR-3 ovarian it was 14.8 nM and 13.9 nM and 28.2 nM; with CAKI-1 renal, 4160 nM and 1490 nM and 496 nM; with HT29 colon it was 13.8 nM and 15.3 nM and 13.1 nM; with SNB-75 CNS, < 10 nM and 5.85 nM and 5.68 nM; in the assay with HL-60(TB) leukemia it was 244 nM and 45.7 nM and 52.6 nM. For the same compound, the GI50 in the assay on NCI-H522 lung was 10.2 nM and 10.3 nM and 24.6 nM; in the assay with SN12C renal, < 12.9 nM and 13.3 nM and 20.8 nM; with UACC-62 melanoma it was 23.3 nM and 16.9 nM and 12.5 nM; with TK-10 renal, 363 nM and 389 nM and 122 nM. Besides, the TGI with NCI-H23 lung was 15700 nM and 2500 nM and 2300 nM; with OVCAR-3 ovarian, 603 nM and 366 nM and 935 nM; in the assay on HT29 colon, 266 nM and 2500 nM and 302 nM; in the assay with SNB-75 CNS, 16.4 nM and 42.7 nM and 78.3 nM; with HL-60(TB) leukemia, > 20400 nM and 2500 nM and 8910 nM; in the assay with NCI-H522 lung it was 75.8 nM and 207 nM and 371 nM. The TGI with SN12C renal is 13100 nM and 2500 nM and > 10000 nM; in the assay with UACC-62 melanoma it was 109 nM and 121 nM and 127 nM; in the assay on TK-10 renal it was 1840 nM and 1560 nM and 2500 nM.

In the case of `O=C(O)CC12C3C4C5C3C1C5C42` (stereo unspecified), the TGI in the assay with NCI-H23 lung, in the assay with OVCAR-3 ovarian, with CAKI-1 renal, in the assay with HT29 colon, in the assay with SNB-75 CNS and with HL-60(TB) leukemia was > 100000 nM in each case. Also, the TGI in the assay on NCI-H522 lung, with SN12C renal, with UACC-62 melanoma and in the assay on TK-10 renal was > 100000 nM each time.

With `CCCCCCCCCCC(O)C1CCC(C(O)CCC(O)C2CCC(CCCCCCC[C@H](O)CC3=C[C@@H](C)OC3=O)O2)O1` (stereo partly specified), the TGI with NCI-H23 lung is 69400 nM; in the assay on OVCAR-3 ovarian, 45000 nM; in the assay with CAKI-1 renal, > 100000 nM; in the assay with HT29 colon, > 100000 nM; in the assay with SNB-75 CNS, 25400 nM; in the assay with HL-60(TB) leukemia, 13400 nM. Also, the TGI with NCI-H522 lung, in the assay on SN12C renal, in the assay with UACC-62 melanoma and in the assay on TK-10 renal was > 100000 nM in each case. The GI50 in the assay on SNB-75 CNS was 2920 nM; in the assay with UACC-62 melanoma it was 466 nM.

Turning to `C=C[C@H]1CCC/C=C/[C@@H]2C[C@H](O)C[C@H]2[C@H](O)/C=C/C(=O)O1`, the GI50 in the assay on NCI-H23 lung was 39.3 nM; with OVCAR-3 ovarian, 24.2 nM; with CAKI-1 renal, 35 nM; in the assay on HT29 colon it was 24.4 nM; in the assay on SNB-75 CNS it was < 10 nM; in the assay with HL-60(TB) leukemia it was 34.7 nM. The GI50 is 67.3 nM in the assay on NCI-H522 lung, 37.4 nM in the assay with SN12C renal, 34.4 nM with UACC-62 melanoma and 39.3 nM in the assay with TK-10 renal. Moreover, the TGI in the assay on NCI-H23 lung is 6000 nM; in the assay with OVCAR-3 ovarian it was 57.6 nM; in the assay on CAKI-1 renal it was > 100000 nM; in the assay with HT29 colon, 63.2 nM; in the assay on SNB-75 CNS, > 100000 nM; in the assay with HL-60(TB) leukemia it was 234 nM. Also, the TGI is 356 nM in the assay on NCI-H522 lung, > 100000 nM in the assay with SN12C renal, > 100000 nM in the assay on UACC-62 melanoma and 500 nM in the assay on TK-10 renal.

With `COc1c(Cl)c2c(c(OC)c1OC)-c1ccc(SC)c(=O)cc1[C@@H](NC(=O)OCC(F)(F)F)CC2`, the GI50 in the assay with NCI-H23 lung is < 10 nM; in the assay with OVCAR-3 ovarian, < 10 nM; in the assay with CAKI-1 renal it was < 22.7 nM; in the assay with HT29 colon, < 10 nM; in the assay with SNB-75 CNS, < 10 nM; in the assay on HL-60(TB) leukemia, < 10 nM. Moreover, the GI50 is < 10 nM in the assay with NCI-H522 lung, < 10 nM in the assay on SN12C renal, < 10 nM in the assay on UACC-62 melanoma and 6110 nM in the assay on TK-10 renal. Also, the TGI in the assay with NCI-H23 lung was > 100000 nM; with OVCAR-3 ovarian it was < 10 nM; with CAKI-1 renal it was > 56800 nM; in the assay on HT29 colon, 23800 nM; in the assay on SNB-75 CNS, > 100000 nM; in the assay with HL-60(TB) leukemia, < 10 nM. For the same compound, the TGI was 3460 nM in the assay with NCI-H522 lung, > 100000 nM in the assay with SN12C renal, 21200 nM with UACC-62 melanoma and > 100000 nM with TK-10 renal.

`C=C(C)CN(CC#N)CC(=C)C`: the TGI in the assay on NCI-H23 lung, in the assay with OVCAR-3 ovarian, in the assay on CAKI-1 renal, in the assay on HT29 colon, in the assay on SNB-75 CNS and with HL-60(TB) leukemia was > 100000 nM throughout. Besides, the TGI with NCI-H522 lung, in the assay with SN12C renal, in the assay on UACC-62 melanoma and with TK-10 renal was > 100000 nM each time.
